Experimental data reported in patent US10844027B2, “Carboxylic diarylthiazepineamines as mu-opioid receptor agonists” (THE TRUSTEES OF COLUMBIA UNIVERSITY IN THE CITY OF NEW YORK, priority 2015, dated 2020).
Structures can show the parent of a compound that is named as a salt.

Assays:
[1] = target: T1, human mu-opioid receptor (MOR) (Homo sapiens, UniProt P35372); experiment: BRET assay measuring G protein activation, agonist activity at human MOR; format: cell-based
T1 construct: expressed in transfected cells; host or cells: HEK-293T
Method: After 24 hours the media was changed, and the experiment was performed 24 hours later (48 hours after transfection).
Transfected cells were dissociated and re-suspended in phosphate-buffered saline (PBS). […] The microplate was centrifuged and the cells were re-suspended in PBS. Then 5 μM of the luciferase substrate coelenterazine H was added to each well for 5 minutes. Following coelenterazine H addition, ligands were added and the BRET signal was measured at 5 minutes on a PHERAstar FS plate reader. Quantification of the BRET signal required calculating the ratio of the light emitted by the energy acceptor, mVenus (510-540 nm), over the light emitted by the energy donor, RLuc8 (485 nm). […] Dose response curves were fit using a three-parameter logistics equation in GraphPad Prism 6.

[2] = target: T2, human delta-opioid receptor (DOR) (Homo sapiens, UniProt P41143); experiment: BRET assay measuring G protein activation, agonist activity at human DOR; format: cell-based
T2 construct: expressed in transfected cells; host or cells: HEK-293T
Method: The diarylthiazepinamine esters (6) and carboxylic acids (7) were tested for agonist activity at the human mu-opioid receptor (MOR) and delta-opioid receptor (DOR) using bioluminescence resonance energy transfer (BRET) assays measuring G protein activation as previously described (Table 1) (Rives, M.-L. et al. 2012; Negri, A. et al. 2013).
Human MOR or DOR cDNA was transfected alongside GαoB with RLuc8 inserted at position 91 (GαoB—RLuc8), Gβ1 (β1), and Gγ2 fused to the full-length mVenus at its N terminus (mVenus-γ2) into HEK-293T cells (5×10^6 cells/plate) in 10-cm dishes using PEI (Polysciences Inc.; Warrington, Pa.) in a 1:1 ratio diluted in Opti-MEM (Life Technologies Corp.; Grand Island, N.Y.) to assay for G protein activation as described previously (Rives, M.-L. et al. 2012; Negri, A. et al. 2013). Cells were maintained in Dulbecco's Modified Eagle Medium (high glucose #11965; Life Technologies) supplemented with 10% FBS (Premium Select, Atlanta Biologicals; Atlanta, Ga.) and 100 U/mL penicillin and 100 μg/mL streptomycin (#15140, Life Technologies). After 24 hours the media was changed, and the experiment was performed 24 hours later (48 hours after transfection).
Transfected cells were dissociated and re-suspended in phosphate-buffered saline (PBS). Approximately 200,000 cells/well were added to a black-framed, white well 96-well plate (#60050; Perkin Elmer; Waltham, Mass.). The microplate was centrifuged and the cells were re-suspended in PBS. Then 5 μM of the luciferase substrate coelenterazine H was added to each well for 5 minutes. Following coelenterazine H addition, ligands were added and the BRET signal was measured at 5 minutes on a PHERAstar FS plate reader. Quantification of the BRET signal required calculating the ratio of the light emitted by the energy acceptor, mVenus (510-540 nm), over the light emitted by the energy donor, RLuc8 (485 nm). […] Dose response curves were fit using a three-parameter logistics equation in GraphPad Prism 6.

[3] = Brain pharmacokinetics of tianeptine and its 5-carbon metabolite (7i) in mice
Method: Brain samples were collected from three mice at 0.08, 0.25, 0.5, 1, 2, 4, 8 and 24 h, homogenized using ice-cold phosphate buffer saline (pH 7.4), and stored below −70° C. until analysis. Total homogenate volume was three times the tissue weight. All samples were processed for analysis by protein precipitation using acetonitrile (ACN) and analyzed with a fit-for-purpose LC/MS/MS method (LLOQ—1.01 ng/mL in brain). Pharmacokinetic parameters were calculated using the non-compartmental analysis tool of Phoenix WinNonlin® (Version 6.3).

[4] = brain, C57BL/6 mice, single injection (30 mg/kg, i.p.) of tianeptine
[5] = brain, mice, after tianeptine 30 mg/kg i.p.
[6] = male, C57BL/6, mouse, in vivo, ip, 30 mg/kg

T1 sequence (P35372 whole entry): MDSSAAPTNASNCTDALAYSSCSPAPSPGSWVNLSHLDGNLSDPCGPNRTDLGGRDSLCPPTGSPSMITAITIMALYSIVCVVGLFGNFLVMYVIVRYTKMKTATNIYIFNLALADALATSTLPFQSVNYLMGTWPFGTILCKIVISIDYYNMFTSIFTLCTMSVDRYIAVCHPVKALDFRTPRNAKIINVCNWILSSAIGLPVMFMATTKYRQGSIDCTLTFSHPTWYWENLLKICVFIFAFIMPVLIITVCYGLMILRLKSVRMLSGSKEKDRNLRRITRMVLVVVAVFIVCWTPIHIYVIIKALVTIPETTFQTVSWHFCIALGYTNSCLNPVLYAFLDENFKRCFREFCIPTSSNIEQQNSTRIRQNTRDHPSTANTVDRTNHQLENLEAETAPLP
T2 sequence (P41143 whole entry): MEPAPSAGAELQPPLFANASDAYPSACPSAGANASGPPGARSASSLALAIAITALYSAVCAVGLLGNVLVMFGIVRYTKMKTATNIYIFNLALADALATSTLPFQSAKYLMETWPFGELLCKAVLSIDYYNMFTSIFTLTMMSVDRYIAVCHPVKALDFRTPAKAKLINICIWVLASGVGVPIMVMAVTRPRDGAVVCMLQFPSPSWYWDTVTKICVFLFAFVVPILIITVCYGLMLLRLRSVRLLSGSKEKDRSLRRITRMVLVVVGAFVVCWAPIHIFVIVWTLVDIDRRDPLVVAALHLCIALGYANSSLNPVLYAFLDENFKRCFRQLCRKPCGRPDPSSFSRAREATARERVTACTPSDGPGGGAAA

| Compound | EC50 [1] | EC50 [2] | other results |
| --- | --- | --- | --- |
| CCOC(=O)CCNC1c2ccccc2N(C)S(=O)(=O)c2cc(I)ccc21 (stereo not shown) [Compound 6b, Ethyl 3-((3-iodo-6-methyl-5,5-dioxido-6,11-dihydrodibenzo[c,f][1,2]thiazepin-11-yl)amino)propanoate] | 1.6 ± 0.2 µM | > 10 µM | – |
| CCOC(=O)CCCCCNC1c2ccccc2N(C)S(=O)(=O)c2cc(I)ccc21 (stereo not shown) [Compound 6g, Ethyl 6-((3-iodo-6-methyl-5,5-dioxido-6,11l-dihydrodibenzo[c,f][1,2]thiazepin-11-yl)amino)hexanoate] | 0.0485 ± 0.0049 µM | 8.5 ± 6.3 µM | – |
| CCOC(=O)CCCCNC1c2ccccc2N(C)S(=O)(=O)c2cc(Cl)ccc21 (stereo not shown) [Compound 6i, Ethyl 5-((3-chloro-6-methyl-5,5-dioxido-6,11-dihydrodibenzo[c,f][1,2]thiazepin-11-yl)amino)pentanoate] | 0.533 ± 0.267 µM | > 10 µM | – |
| CCOC(=O)CCCCNC1c2ccccc2N(C)S(=O)(=O)c2cc(I)ccc21 (stereo not shown) [Compound 6e, Ethyl 5-((3-iodo-6-methyl-5,5-dioxido-6,11-dihydrodibenzo[c,f][1,2]thiazepin-11-yl)amino)pentanoate] | 0.0282 ± 0.0032 µM | 6.8 ± 0.03 µM | – |
| CN1c2ccccc2C(NCCCCC(=O)O)c2ccc(Cl)cc2S1(=O)=O.Cl (stereo not shown) [Compound 7i, 5-((3-Chloro-6-methyl-5,5-dioxido-6,11-dihydrodibenzo[c,f][1,2]thiazepin-11-yl)amino)pentanoic acid hydrochloride salt] | 0.361 ± 0.0929 µM | > 10 µM | AUClast [3, 4]: 5963 ng·h/g; CL [3, 4]: 4.68 L/h/kg; brain exposure (as measured by AUC) compared to the parent compound (tianeptine) [3, 5]: greater; half-life compared to the parent compound (tianeptine) [3, 5]: significantly longer; Cmax [3, 6]: 2860 ng/g; Tmax [3, 6]: 0.5 h; half-life [3, 6]: 2.33 h |
| CN1c2ccccc2C(NCCCCCC(=O)O)c2ccc(Br)cc2S1(=O)=O (stereo not shown) [Compound 7f, 6-((3-Bromo-6-methyl-5,5-dioxido-6,11-dihydrodibenzo[c,f][1,2]thiazepin-11-yl)amino)hexanoic acid hydrochloride salt] | 0.133 ± 0.0132 µM | 23.7 ± 1.5 µM | – |
| CN1c2ccccc2C(NCCCCC(=O)O)c2ccc(Br)cc2S1(=O)=O (stereo not shown) [Compound 7d, 5-((3-Bromo-6-methyl-5,5-dioxido-6,11-dihydrodibenzo[c,f][1,2]thiazepin-11-yl)amino)pentanoic acid hydrochloride salt] | 0.405 µM | > 10 µM | – |
| CN1c2ccccc2C(NCCCCCCC(=O)O)c2ccc(Cl)cc2S1(=O)=O (stereo not shown) [Tianeptine, tianeptine, reference compound] | – | 37.4 ± 11.2 µM | – |
| CN1c2ccccc2C(NCCCCC(=O)O)c2ccc(I)cc2S1(=O)=O (stereo not shown) [Compound 7e, 5-((3-Iodo-6-methyl-5,5-dioxido-6,11-dihydrodibenzo[c,f][1,2]thiazepin-11-yl)amino)pentanoic acid hydrochloride salt] | 0.0183 ± 0.0002 µM | 8.9 ± 0.007 µM | – |
| CCOC(=O)CCCNC1c2ccccc2N(C)S(=O)(=O)c2cc(Br)ccc21 (stereo not shown) [Compound 6c, Ethyl 4-((3-bromo-6-methyl-5,5-dioxido-6,11-dihydrodibenzo[c,f][1,2]thiazepin-11-yl)amino)butanoate] | 0.27 ± 0.038 µM | > 10 µM | – |
| CN1c2ccccc2C(NCCC(=O)O)c2ccc(I)cc2S1(=O)=O (stereo not shown) [Compound 7b, 3-((3-Iodo-6-methyl-5,5-dioxido-6,11-dihydrodibenzo[c,f][1,2]thiazepin-11-yl)amino) propanoic acid hydrochloride salt] | 1.2 ± 0.3 µM | > 10 µM | – |
| CN1c2ccccc2C(NCCC(=O)O)c2ccc(Cl)cc2S1(=O)=O (stereo not shown) [Compound 7h, 3-((3-Chloro-6-methyl-5,5-dioxido-6,11-dihydrodibenzo[c,f][1,2]thiazepin-11-yl)amino)propanoic acid hydrochloride salt] | 24.9 ± 12.6 µM | > 10 µM | – |
| CN1c2ccccc2C(NCCCC(=O)O)c2ccc(Br)cc2S1(=O)=O (stereo not shown) [Compound 7c, 4-((3-Bromo-6-methyl-5,5-dioxido-6,11-dihydrodibenzo[c,f][1,2]thiazepin-11-yl)amino)butanoic acid hydrochloride salt] | 2 ± 0.3 µM | > 10 µM | – |
| CCOC(=O)CCCCCNC1c2ccccc2N(C)S(=O)(=O)c2cc(Br)ccc21 (stereo not shown) [Compound 6f, Ethyl 6-((3-bromo-6-methyl-5,5-dioxido-6,11-dihydrodibenzo[c,f][1,2]thiazepin-11-yl)amino)hexanoate] | 0.0908 ± 0.0314 µM | 11.7 ± 0.06 µM | – |
| CN1c2ccccc2C(NCCCCCC(=O)O)c2ccc(I)cc2S1(=O)=O (stereo not shown) [Compound 7g, 6-((3-Iodo-6-methyl-5,5-dioxido-6,11-dihydrodibenzo[c,f][1,2]thiazepin-11-yl)amino)hexanoic acid hydrochloride salt] | 0.0243 ± 0.0045 µM | 5.1 ± 1.4 µM | – |
| CCOC(=O)CCCCCNC1c2ccccc2N(C)S(=O)(=O)c2cc(Cl)ccc21 (stereo not shown) [Compound 6j, Ethyl 6-((3-chloro-6-methyl-5,5-dioxido-6,11-dihydrodibenzo[c,f][1,2]thiazepin-11-yl)amino)hexanoate] | 0.318 ± 0.162 µM | 13.9 ± 4.8 µM | – |
| CCOC(=O)CCNC1c2ccccc2N(C)S(=O)(=O)c2cc(Br)ccc21 (stereo not shown) [Compound 6a, Ethyl 3-((3-bromo-6-methyl-5,5-dioxido-6,11l-dihydrodibenzo[c,f][1,2]thiazepin-11-yl)amino)propanoate] | 5.9 ± 1 µM | > 10 µM | – |
| CN1c2ccccc2C(NCCC(=O)O)c2ccc(Br)cc2S1(=O)=O (stereo not shown) [Compound 7a, 3-((3-Bromo-6-methyl-5,5-dioxido-6,1-dihydrodibenzo[c,f][1,2]thiazepin-11-yl)amino)propanoic acid hydrochloride salt] | 4.7 ± 1.4 µM | > 10 µM | – |
| CCOC(=O)CCCCNC1c2ccccc2N(C)S(=O)(=O)c2cc(Br)ccc21 (stereo not shown) [Compound 6d, Ethyl 5-((3-bromo-6-methyl-5,5-dioxido-6,11-dihydrodibenzo[c,f][1,2]thiazepin-11-yl)amino)pentanoate] | 0.12 µM | – | – |
